The subject of data set [1] is Guinea-pigs sensitized to ovalbumin. As to the kind of experiment: Guinea pig model of asthma, airway hyper-reactivity 24 h after OVA challenge. In kind it is in vivo. The note with it: for Cdyn, % increase from that of the positive control / RL, % decrease from that of the positive control: Dexamethasone 15 mg/kg, glycan compounds 10 mg/kg, intratracheal microspray. The procedure:
A guinea pig model of asthma was used. Guinea-pigs (8 per group) were sensitized to ovalbumin by two intraperitoneal injections of ovalbumin (grade V, 20 μg) in aluminium hydroxide gel on Days 1 and 11. On day 20 (24 hours prior to assessing airway hyper-reactivity (AHR)) each animal received a challenge dose of OVA—this took the form of a 1 hour aerosol exposure of OVA (10 μg). The negative control animals received, no sensitization and no challenge. The positive controls were sensitized and challenged but were either given no further treatment or were treated with vehicle (saline). Test compounds (PPS and the sulfated xylan pentasaccharide) and vehicle were administered by intratracheal administration as an aqueous microspray using a Penn Century device. The device used was the FMJ250 high pressure syringe and a 1A-1C microspray delivery tube. The particle size delivery goes up to 32 μm. During the study the volume delivered was 100 ul for all test formulations. The test compounds were administered 30 min before challenge with OVA. The animals underwent surgery 24 hours after challenge to insert a cannula into the trachea, the cannula was connected to the instrumentation which measured pressure and changes in airflow. After surgery the animals were allowed to stabilize for 10 min before baseline readings were taken. Bronchoconstriction was evoked with aerosolized methacholine (10 mg/ml and 30 mg/ml) for 20 seconds. The difference between baseline readings and that obtained after methacholine were used to calculate Cdyn and RL. Thus, measurements of lung function were taken approximately 25 hours after the drug was administered. Both pentosan polysulfate and the sulfated xylan pentasaccharide when administered at 10 mg/kg were effective in reducing the airway hyper-reactivity readings. Their efficacy was approximately equivalent to that usually seen with 7.5 mg/kg of dexamethasone in this model.

For data set [2], the system named is Guinea pigs sensitized to OVA and challenged with inhaled OVA. As to the kind of experiment: Second guinea pig asthma model, parameters 8 hours after OVA inhalation. In kind it is in vivo. The procedure: A slightly different animal model was also examined. In this model Guinea pigs were sensitized to OVA twice by an intraperitoneal injection of 0.5 ml saline containing 20 mg Al(OH)3 and 20 μg OVA. The sensitizations are performed on days 0 and 7. Three weeks after the last sensitization, animals were pre-treated with either vehicle or drugs 30 min prior to inhalation of OVA (at 10 mg/ml) for 6 min (allergen challenge). For the negative control, animals received either sensitization and challenge with saline or sensitization with saline and challenge with OVA. Animals were terminated and all parameters measured 8 hours after the provocation. Vehicle or drugs were administered intra-tracheally, 1 ml/kg body weight, 30 min before the intra-tracheal challenge with OVA. The vehicle for compounds was saline. Budesonide as the reference compound was dissolved in the vehicle at concentrations of 1 mg/ml. To measure airway resistance (RL.) and lung compliance (Cdyn) bronchoconstriction was evoked with aerosolized methacholine (3 mg/ml, 10 mg/ml and 30 mg/ml). The difference between baseline readings and that obtained after methacholine were used to calculate Cdyn and RL. Bronchoalveolar lavage (BAL) was performed immediately after the lung function measurements. BAL was analysed for protein content (as a measure of leakage) and leukocyte number, differential cell counts were performed to indicate what subsets of leukocytes were best affected by the drugs.

In the next data set the target is IL-13 (Homo sapiens, UniProt P35225). As to the kind of experiment: IL-13 dependent proliferation of TF-1 cells. In kind it is cell-based. From the text: IL-13 is a cytokine with a key role in asthma and allergic disease (including allergic rhinitis) and it seems particularly important in […] the airway hyperreactivity seen with asthma (Wills-Karp, Immunol. Rev. 202:175-190, 2004). […] Pentosan polysulfate (PPS) and a DP5 sulfated xylan inhibited the proliferation of a human IL-13 responsive cell line. This occurs at very low doses and is not due to a toxic effect of the PPS because other, similarly sulfated polysaccharides, at the same concentrations of IL-13 and polysaccharide have no effect. These experiments utilize the TF-1 cells. TF-1 cells were originally established from a bone marrow sample from a person with severe pancytopenia. […]
Chain of IL-13 (P35225 25-146): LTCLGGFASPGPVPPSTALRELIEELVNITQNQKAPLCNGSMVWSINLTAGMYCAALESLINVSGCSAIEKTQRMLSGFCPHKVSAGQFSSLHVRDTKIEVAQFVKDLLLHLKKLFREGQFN
The proliferation assays are carried out in 96-well microplates suitable for such assays (Falcon). […] The cells are counted with a Coulter Z2 Particle Counter and Size Analyzer (Coulter Electronics, England) and routinely 2.5×10^4 cells are added to microplate wells that contain either no IL-13 (negative control) or various dilutions of IL-13. When the effect of PPS is to be measured, the wells also contain various concentrations of this molecule. The cells proliferate for 48 hours at 37° C. in a humidified atmosphere, after which the number of cells present is quantified by staining with the AQUEOUS ONE dye (30 μl/well) for 3 hours and then absorbance is read at 490 nm.

For data set [3] the following is noted: relative to heparin; cited from earlier work.

Marks after values point to notes of the source that are not given here.

As for Pentosan polysulfate [PPS], in data set [1] (10 mg/kg intratracheal microspray 30 min before OVA challenge), the “Reduction of airway hyper-reactivity readings (in words)” value was “effective”. For the same substance, the “Cdyn, % increase from that of the positive control” value is 38% * in data set [1] (MCh 10 mg/ml) and 49% ** in data set [1] (MCh 30 mg/ml). Also, the “RL, % decrease from that of the positive control” value in data set [1] (MCh 10 mg/ml) came out at 32%; in data set [1] (MCh 30 mg/ml), 35% **. Besides, the “Inhibition of RL (airway resistance)” value is 103% in data set [2] (0.5 mg/kg, FIG. 15A); 94% in data set [2] (2.4 mg/kg, FIG. 15A); 100% in data set [2] (10 mg/kg, FIG. 15A). In data set [2] (0.1, 0.5, 2.5, 10 mg/kg intra-tracheal, FIG. 14B), the “Total number of infiltrating leukocytes in the bronchoalveolar fluid (in words)” value is recorded as “significantly reduced”. Besides, in data set [2] (0.1, 0.5, 2.5, 10 mg/kg intra-tracheal, all except 0.1 mg/kg significant (P<0.05), dose dependent, FIG. 14A), the “Total protein content in the bronchoalveolar fluid” value is reported as “significantly reduced”. For the same substance, in data set [2] (all doses, after 10 mg/ml methacholine, FIG. 15A), the “Inhibitory effect on RL (airway resistance)” value is listed as “more than 90%”. Further, the “Effect on alterations of lung compliance (Cdyn)” value in data set [2] (represented as an increase in lung compliance, FIG. 15B) is “Inhibitory effects”. In addition, at IL-13 (FIG. 16, IL-13 2.5 ng/ml), the “Inhibition of IL-13 dependent proliferation of TF-1 cells (in words)” value was “markedly inhibit”. In addition, the “IL-13 mediated cell proliferation blocked” value at IL-13 (PPS concentrations of 5-10 μg/ml, TF-1 cells, 48 hours) is given as 75-80%. The “Anticoagulant activity as fraction of that of heparin” value in data set [3] is “about 1/15”.

These data come from patent US20180078576A1, “SULPHATED XYLANS FOR TREATMENT OR PROPHYLAXIS OF RESPIRATORY DISEASES” (Paradigm Biopharmaceuticals Limited, priority 2007, published 2018).
